Test results from patent US4563465A, “Treatment of migraine with substituted tropyl benzoate derivatives” (Merrell Dow Pharmaceuticals Inc., priority 1981, dated 1986).
Read-outs that look alike come from different tables or passages of the source.

Columns and labels:
[1] = system: 5-HT (Von Bezold-Jarisch reflex); assay: Von Bezold-Jarisch reflex evoked by i.v. 5-HT in the anaesthetized rat, antagonism; type: in vivo, rat (male Sprague-Dawley); conditions: for ED50 / minimal effective dose: iv; for ED50: read-out: ED50 (inhibits the response to 5-HT by 50%); for minimal effective dose: read-out: threshold dose (just inhibits the response to 5-HT); for potency relative to metoclopramide: Von Bezold-Jarisch reflex, comparative test
Excerpt: The activity of these compounds against 5-HT can be assessed in vivo by measurement of the effect of the compound on the Von Bezold-Jarisch Reflex induced by 5-HT injected intravenously into the rat (A.S. Paintal, Physiol. Rev. 53, 159-227, 1973). The transient cardiac slowing arises from an increased […] vagus activity arising from stimulation by 5-HT of sensory afferent fibres in and around the heart (see Example 3).
Antagonism of the Von Bezold-Jarisch reflex evoked by 5-HT in the anaesthetized rat was measured for tropyl 3,5-dimethoxybenzoate (A), tropyl 3,5-dimethylbenzoate (B) and tropyl 3,5-dichlorobenzoate (C) using the following method.
Male Sprague-Dawley rats weighing 250-300 g are anaesthetized with urethane, 1.25 g/kg injected intraperitoneally and set up for recording blood pressure and heart rate as described in J. R. Fozard et al, J. Cardiovas. Pharmacol. 2, 229-245 (1980). A submaximal dose of 5-HT ([…]) is given repeatedly into the cannulated jugular vein and changes in heart rate are quantified. Antagonists are given intravenously and the doses required to just inhibit the response to 5-HT (threshold dose) or to inhibit the response to 5-HT by 50% (ED50) are determined.

rat uterus, 5-HT = assay: Selectivity: inhibition of response to 5-HT, rat uterus; type: biochemical; conditions: agonist 5-HT, read-out: concentration to inhibit standard response to stimulants by 50% (IC50)
Excerpt: (§1) A selection of classical in vitro pharmacological test preparations (rat uterus, rat fundus, guinea-pig ileum, guinea-pig taenia caeci) were set up according to well-established procedures (see "Pharmacological Experiments on Isolated Preparations" Staff of the Department of Pharmacology, University of Edinburgh, Livingstone, Edinburgh 1970). Various spasmogens were used to elicit contraction of these tissues though mechanisms other than the 5-HT "M" receptor. The concentrations of tropyl 3,5-dimethoxybenzoate (A), tropyl 3,5-dimethylbenzoate (B) and tropyl 3,5-dichlorobenzoate (C) which reduced the effects of a submaximal dose of agonist by 50% were determined (IC50). The results are set forth in Table VI below in which the compounds are identified by the reference letters used above.

rat fundus, 5-HT = assay: Selectivity: inhibition of response to 5-HT, rat fundus; type: biochemical; conditions: agonist 5-HT, read-out: concentration to inhibit standard response to stimulants by 50% (IC50)
Excerpt: as §1

rat uterus, oxytocin = assay: Selectivity: inhibition of response to oxytocin, rat uterus; type: biochemical; conditions: agonist oxytocin, read-out: concentration to inhibit standard response to stimulants by 50% (IC50)
Excerpt: as §1

[2] = system: rat fundus, acetylcholine; assay: Selectivity: inhibition of response to acetylcholine, rat fundus; type: biochemical; conditions: agonist acetylcholine, read-out: concentration to inhibit standard response to stimulants by 50% (IC50)
Excerpt: as §1

[3] = system: guinea-pig ileum, acetylcholine; assay: Selectivity: inhibition of response to acetylcholine or carbachol, guinea-pig ileum; type: biochemical; conditions: read-out: concentration to inhibit standard response to stimulants by 50% (IC50)
Excerpt: as §1
**Carbachol agonist instead of acetylcholine

[4] = system: guinea-pig ileum, histamine; assay: Selectivity: inhibition of response to histamine, guinea-pig ileum; type: biochemical; conditions: agonist histamine, read-out: concentration to inhibit standard response to stimulants by 50% (IC50)
Excerpt: as §1

[5] = system: guinea-pig taenia caeci, calcium; assay: Selectivity: inhibition of response to calcium, guinea-pig taenia caeci; type: biochemical; conditions: agonist calcium, guinea-pig taenia caeci in potassium depolarized Tyrode solution; read-out: concentration to inhibit standard response to stimulants by 50% (IC50)
Excerpt: as §1
*In potassiumdepolarized Tyrode solution

mouse and rat = assay: Acute toxicity (LD50) in the mouse and rat, overall statement; type: in vivo
[6] = system: patients with migraine or cluster headaches; assay: Pilot study of tolerance and efficacy, intravenous, in patients with migraine or cluster headaches; type: in vivo, human (patients); conditions: for headache response: Patient No. 6
Method: This study was designed to evaluate tolerance and, if possible, efficacy of intravenous tropyl 3,5-dichlorobenzoate in patients with migraine or cluster headaches.
Eight patients (4 males), aged 27-47 with known headache disorders of 5-27 years duration (see Table VII) took part in the study but Patients Nos. 2 and 4 had cluster not migraine headaches and the cause of headaches in Patient No. 6 was unknown.
Tropyl 3,5-dichlorobenzoate was provided as a sterile solution, 1 mg/ml; the desired dose to be diluted in 10 ml normal saline for intravenous infusion over a 2 minute period. No other therapy was taken for at least 24 hours before treatment or during the course of therapy.
Doses as high as 14 mg/day and 9 mg single dose were administered without any signs of intolerance.

acute migraine attack = conditions: slow intravenous injection, 10 mg; J. B. Hughes 1977; cited from earlier work
[7] = Patient 6, after 4 mg dose i.v.

| Compound | ED50 ([1]; Rattus norvegicus) [µg/kg] | minimal effective dose ([1]; Rattus norvegicus) [µg/kg] | potency relative to metoclopramide [1] | IC50 (rat uterus, 5-HT) [µM] | IC50 (rat fundus, 5-HT) [µM] | IC50 (rat uterus, oxytocin) [µM] | IC50 [2] [µM] | IC50 ([3]; agonist acetylcholine) [µM] | IC50 [4] [µM] | IC50 [5] [µM] | toxicity as shown by LD50 values (mouse and rat) | further results |
| --- | --- | --- | --- | --- | --- | --- | --- | --- | --- | --- | --- | --- |
| COc1cc(OC)cc(C(=O)OC2CC3CCC(C2)N3C)c1 (stereo not shown) [A, tropyl 3,5-dimethoxybenzoate] | 13.7 ± 1.2 | 6.96 ± 0.9 | many times more potent than metoclopramide | > 52.5 | 40 | > 52.5 | 13.1 | 9.56 | 6.61 | 36.1 | relatively non-toxic |  |
| CN1C2CCC1CC(OC(=O)c1cc(Cl)cc(Cl)c1)C2 (stereo not shown) [C, tropyl 3,5-dichlorobenzoate] | 22 ± 3.2 | 7.72 ± 0.63 | many times more potent than metoclopramide | 25.4 | > 50.9 | > 50.9 | 12.4 | 8.05 | 3.68 | 28.6 | relatively non-toxic | response ([6]; Patient 1, i.v. 1 mg, then 1 hour later, 2 mg): no effect on headache or nausea; response ([6]; Patient 2 (cluster), i.v. 1 mg): no effect; response ([6]; Patient 4 (cluster), i.v. 3 mg): no effect; effect of increased doses ([6]; Patient 6, 5 mg bid × 2 days, then 6 mg bid × 11 days i.v.): no greater effect; duration of reduction of pain intensity [6, 7]: 4 to 8 h; time to reduction of pain intensity [6, 7]: ≤ 30 min; reduction of pain intensity ([6]; Patient 6, within 30 minutes after 4 mg dose i.v.): 70-80%; response ([6]; Patient 7, i.v. 3 mg × 1 day, then 5 mg × 2 days, then 7 mg × 1 day): no effect; response during increasing doses ([6]; Patient 8, i.v. 6 mg × 1 day, 7 mg × 2 days, 9 mg × 1 day): maintained during increasing doses; reduction of pain ([6]; Patient 8, with 3 mg i.v.): about 30%; headache response ([6]; 3 mg single doses i.v.): slight reduction in their bilateral headache; headache response ([6]; 4 mg bid i.v.): further amelioration; time after stopping therapy to return of headaches to pretreatment intensity ([6]; Patient No. 8): 6 to 7 days; symptom response ([6]; Patient No. 8, first dose of 3 mg i.v.): decrease in all symptoms; repeated dose well tolerated (highest) ([6]; i.v. b.i.d., patients with headaches): up to 7 mg; cumulative dose well tolerated (highest) ([6]; i.v., over 18 days): 177 mg; dose per day administered without any signs of intolerance (highest) ([6]; i.v., patients): 14 mg/day; patients with marked diminution of headache and associated symptoms ([6]; patients treated with repeated doses (Patients Nos. 6 and 8), i.v.): two of the three patients; pain intensity and associated symptoms ([6]; some patients treated with doses of 3 mg or greater, i.v.): ameliorated |
| CCN(CC)CCNC(=O)c1cc(Cl)c(N)cc1OC [metoclopramide, reference compound] |  |  |  |  |  |  |  |  |  |  |  | minimal effective dose ([1]; antagonist i.v., anaesthetized rat): 233 ± 66.3 µg/kg; relief of acute migraine attack (acute migraine attack): immediate relief of acute migraine attack |
| Cc1cc(C)cc(C(=O)OC2CC3CCC(C2)N3C)c1 (stereo not shown) [B, tropyl 3,5-dimethylbenzoate] | 6.07 ± 0.72 | 3.57 ± 0.33 | many times more potent than metoclopramide |  |  |  |  |  |  | 34.2 | relatively non-toxic | IC50 ([3]; carbachol agonist instead of acetylcholine): 9.59 µM |
